Converted amounts (≈) assume the structure as drawn. The source made the active and inactive calls. No cut-off for these calls is given here.
How the values were obtained:
Staphylococcus aureus [1] = experiment: Antibacterial activity against methicillin-resistant Staphylococcus aureus 2 assessed as inhibition of bacterial growth incubated for 18 to 24 hrs by broth microdilution assay; format: functional; settings: time 18-24 hrs
Staphylococcus aureus [2] = experiment: Antibacterial activity against Staphylococcus aureus ATCC 43300 assessed as inhibition of bacterial growth incubated for 18 to 24 hrs by broth microdilution assay; format: functional; settings: time 18-24 hrs
Escherichia coli = experiment: Antibacterial activity against Escherichia coli ATCC 25922 assessed as inhibition of bacterial growth incubated for 18 to 24 hrs by broth microdilution assay; format: functional; settings: time 18-24 hrs
Salmonella enteritidis = experiment: Antibacterial activity against Salmonella enteritidis SM012 assessed as inhibition of bacterial growth incubated for 18 to 24 hrs by broth microdilution assay; format: functional, Salmonella enterica subsp. enterica serovar Enteritidis; settings: Salmonella enterica, time 18-24 hrs
Staphylococcus aureus [3] = experiment: Antibacterial activity against Staphylococcus aureus SH-27 assessed as inhibition of bacterial growth incubated for 18 to 24 hrs by broth microdilution assay; format: functional; settings: time 18-24 hrs
Staphylococcus aureus [4] = experiment: Antibacterial activity against Staphylococcus aureus ATCC 29213 assessed as inhibition of bacterial growth incubated for 18 to 24 hrs by broth microdilution assay; format: functional; settings: time 18-24 hrs
Staphylococcus aureus [5] = experiment: Antibacterial activity against Staphylococcus aureus ATCC 33591 assessed as inhibition of bacterial growth incubated for 18 to 24 hrs by broth microdilution assay; format: functional; settings: time 18-24 hrs
[6] = Cytotoxicity against human L02 cells assessed as reduction in cell viability incubated for 72 hrs by CCK-8 assay; format: toxicity, cell-based
[7] = Hemolytic activity in rabbit RBC assessed as hemolysis incubated for 1 hr by microtiter plate method; format: toxicity, cell-based, Oryctolagus cuniculus, Erythrocyte; settings: red blood cells
Staphylococcus aureus [8] = experiment: Bactericidal activity against Staphylococcus aureus ATCC 29213 assessed as reduction in colony forming unit at 1 to 8 times MIC incubated for 18 to 24 hrs by time kill assay; format: functional, organism-based; settings: time 18-24 hrs
Staphylococcus aureus [9] = experiment: Induction of drug resistance in Staphylococcus aureus ATCC 29213 assessed as fold increase in MIC measured after 20 passage; format: functional
Staphylococcus aureus [10] = experiment: Bactericidal activity against methicillin-resistant Staphylococcus aureus 2 assessed as reduction in colony forming unit at 1 to 8 times MIC incubated for 18 to 24 hrs by time kill assay; format: functional, organism-based; settings: time 18-24 hrs
Staphylococcus aureus [11] = experiment: Bactericidal activity against Staphylococcus aureus ATCC 29213 assessed as reduction in colony forming unit at 4 times MIC measured after 4 hrs by time kill assay; format: functional
Staphylococcus aureus [12] = experiment: Bactericidal activity against methicillin-resistant Staphylococcus aureus 2 assessed as reduction in colony forming unit at 4 times MIC measured after 4 hrs by time kill assay; format: functional
Staphylococcus aureus [13] = experiment: Inhibition of biofilm formation in Staphylococcus aureus ATCC 29213 at 4 to 16 microg/ml incubated for 18 to 24 hrs by crystal violet staining based assay; format: functional, organism-based; settings: dose 4-16 µg/ml, time 18-24 hrs
Staphylococcus aureus [14] = experiment: Inhibition of biofilm formation in methicillin-resistant Staphylococcus aureus 2 at 4 to 16 microg/ml incubated for 18 to 24 hrs by crystal violet staining based assay; format: functional, organism-based; settings: dose 4-16 µg/ml, time 18-24 hrs
Staphylococcus aureus [15] = experiment: Inhibition of biofilm formation in Staphylococcus aureus ATCC 29213 at 1 times MIC incubated for 18 to 24 hrs by crystal violet staining based assay; format: functional; settings: time 18-24 hrs
Staphylococcus aureus [16] = experiment: Inhibition of biofilm formation in methicillin-resistant Staphylococcus aureus 2 at 1 times MIC incubated for 18 to 24 hrs by crystal violet staining based assay; format: functional; settings: time 18-24 hrs
Staphylococcus aureus [17] = experiment: Antibacterial activity Staphylococcus aureus ATCC 29213 infected BALB/c mouse assessed as decrease in volume of skin abscess at 50 to 100 mg/kg,iv measured on day 1 and 3 after infection; format: functional, organism-based; settings: dose 50-100 mg/kg
Staphylococcus aureus [18] = experiment: Antibacterial activity Staphylococcus aureus ATCC 29213 infected BALB/c mouse assessed as reduction in bacterial burden at 50 to 100 mg/kg,iv measured on day 1 and 3 after infection; format: functional, organism-based; settings: dose 50-100 mg/kg
Staphylococcus aureus [19] = experiment: Antibacterial activity Staphylococcus aureus ATCC 29213 infected BALB/c mouse assessed as decrease in degree of lesion at 50 to 100 mg/kg,iv measured on day 1 and 3 after infection by hematoxylin and eosin staining based assay; format: functional, organism-based; settings: dose 50-100 mg/kg
Staphylococcus aureus [20] = experiment: Antibacterial activity Staphylococcus aureus ATCC 29213 infected BALB/c mouse assessed as increase in skin thickness at 50 to 100 mg/kg,iv measured on day 1 and 3 after infection by hematoxylin and eosin staining based assay; format: functional, organism-based; settings: dose 50-100 mg/kg
Staphylococcus aureus [21] = experiment: Antibacterial activity Staphylococcus aureus ATCC 29213 infected BALB/c mouse assessed as IL-1beta cytokine level at 50 to 100 mg/kg,iv measured on day 1 and 3 after infection; format: functional, organism-based; settings: dose 50-100 mg/kg
Staphylococcus aureus [22] = experiment: Antibacterial activity Staphylococcus aureus ATCC 29213 infected BALB/c mouse assessed as TNF-alpha cytokine level at 50 to 100 mg/kg,iv measured on day 1 and 3 after infection; format: functional, organism-based; settings: dose 50-100 mg/kg
Staphylococcus aureus [23] = experiment: Antibacterial activity against Staphylococcus aureus ATCC 29213 assessed as cell wall loosening at 5 x MIC incubated for 2 hrs by transmission electron microscopy analysis; format: functional, organism-based
Staphylococcus aureus [24] = experiment: Antibacterial activity against Staphylococcus aureus ATCC 29213 assessed as blurred space in cytoplasm and cell wall at 5 x MIC incubated for 2 hrs by transmission electron microscopy analysis; format: functional, organism-based
Staphylococcus aureus [25] = experiment: Antibacterial activity against Staphylococcus aureus ATCC 29213 assessed as separation of plasma wall at 5 x MIC incubated for 2 hrs by transmission electron microscopy analysis; format: functional, organism-based
Staphylococcus aureus [26] = experiment: Antibacterial activity against Staphylococcus aureus ATCC 29213 assessed as appearance of circular vesicles at 5 x MIC incubated for 2 hrs by transmission electron microscopy analysis; format: functional, organism-based
Staphylococcus aureus [27] = experiment: Antibacterial activity against methicillin-resistant Staphylococcus aureus 2 assessed as cell wall loosening at 5 x MIC incubated for 2 hrs by transmission electron microscopy analysis; format: functional, organism-based
Staphylococcus aureus [28] = experiment: Antibacterial activity against methicillin-resistant Staphylococcus aureus 2 assessed as blurred space in cytoplasm and cell wall at 5 x MIC incubated for 2 hrs by transmission electron microscopy analysis; format: functional, organism-based
Staphylococcus aureus [29] = experiment: Antibacterial activity against methicillin-resistant Staphylococcus aureus 2 assessed as separation of plasma wall at 5 x MIC incubated for 2 hrs by transmission electron microscopy analysis; format: functional, organism-based
Staphylococcus aureus [30] = experiment: Antibacterial activity against methicillin-resistant Staphylococcus aureus 2 assessed as appearance of circular vesicles at 5 x MIC incubated for 2 hrs by transmission electron microscopy analysis; format: functional, organism-based
Cell membrane [31] = experiment: Disruption of membrane integrity in Staphylococcus aureus ATCC 29213 assessed as cell membrane damage at 5 x MIC incubated for 2 hrs by propidium iodide staining based assay; format: subcellular
Cell membrane [32] = experiment: Disruption of membrane integrity in Staphylococcus aureus ATCC 29213 assessed as cell membrane damage at 5 x MIC incubated for 2 hrs by DAPI staining based assay
Cell membrane [33] = experiment: Induction of cell membrane permeability in Staphylococcus aureus ATCC 29213 at 5 x MIC incubated for 2 hrs by TO-PRO-3 reagent flow cytometry assay; format: subcellular
Cell membrane [34] = experiment: Induction of cell membrane permeability in methicillin-resistant Staphylococcus aureus 2 at 5 x MIC incubated for 2 hrs by TO-PRO-3 reagent flow cytometry assay; format: subcellular
A549 = experiment: Cytotoxicity against human A549 cells assessed as reduction in cell viability at 25 ug/ml incubated for 72 hrs by CCK-8 assay; format: toxicity, cell-based; settings: a549, 72 h, dose 25 µg/ml
Cell membrane [35] = experiment: Induction of membrane depolarization in Staphylococcus aureus ATCC 29213 at 5 x MIC incubated for 2 hrs by DiOC23 dye based based flow cytometry; format: subcellular
Cell membrane [36] = experiment: Induction of membrane depolarization in methicillin-resistant Staphylococcus aureus 2 at 5 x MIC incubated for 2 hrs by DiOC23 dye based based flow cytometry; format: subcellular
Cell membrane [37] = experiment: Induction of cell membrane disruption in Staphylococcus aureus ATCC 29213 assessed as increase in protein leakage at 5 x MIC incubated for 2 hrs by coomassie brilliant blue dye assay; format: subcellular
Cell membrane [38] = experiment: Induction of cell membrane disruption in methicillin-resistant Staphylococcus aureus 2 assessed as increase in protein leakage at 5 x MIC incubated for 2 hrs by coomassie brilliant blue dye assay; format: subcellular
Cell membrane [39] = experiment: Induction of cell membrane disruption in Staphylococcus aureus ATCC 29213 assessed as increase in intracellular vanomycin content at 10 x MIC incubated for 2 hrs by UPLC analysis

For `COc1c(O)cc2oc3cc(O)c(CC=C(C)C)c(OC(C)=O)c3c(=O)c2c1CC=C(C)C`, the MIC (Staphylococcus aureus [1]) was 4 µg/mL (≈ 8.84 µM), the MIC (Staphylococcus aureus [2]) was 1 µg/mL (≈ 2.21 µM) and the MIC (Escherichia coli) was over 256 µg/mL. The MIC (Salmonella enteritidis) was over 256 µg/mL, the MIC (Staphylococcus aureus [3]) was 2 µg/mL (≈ 4.42 µM) and the MIC (Staphylococcus aureus [4]) was 4 µg/mL (≈ 8.84 µM). The MIC (Staphylococcus aureus [5]) was 1 µg/mL (≈ 2.21 µM), the IC50 at 72 h [6] was 22.1 µg/mL (≈ 48.8 µM) and the HC50 at 1 h [7] was 6.3 µg/mL. The Activity (Staphylococcus aureus [8]) was “Active”, the Activity (Staphylococcus aureus [9]) was “inactive” and the Activity (Staphylococcus aureus [10]) was “Active”. For the same molecule, the Activity (Staphylococcus aureus [11]) was 4.57 log10CFU, the Activity (Staphylococcus aureus [12]) was 3.72 log10CFU and the inhibition (Staphylococcus aureus [13]) was “Dose-Dependent Effect”. The inhibition (Staphylococcus aureus [14]) was “Dose-Dependent Effect”, the “inhibition (INH)” value (Staphylococcus aureus [15]) was 90% and the “inhibition (INH)” value (Staphylococcus aureus [16]) was 98%. For the same molecule, the Activity (Staphylococcus aureus [17]) was “Dose-Dependent Effect”, the Activity (Staphylococcus aureus [18]) was “Active” and the Activity (Staphylococcus aureus [19]) was “Active”. For the same molecule, the Activity (Staphylococcus aureus [20]) was “Active”, the Activity (Staphylococcus aureus [21]) was “Active” and the Activity (Staphylococcus aureus [22]) was “Active”. The Activity (Staphylococcus aureus [23]) was “Active”, the Activity (Staphylococcus aureus [24]) was “Active” and the Activity (Staphylococcus aureus [25]) was “Active”. For the same molecule, the Activity (Staphylococcus aureus [26]) was “Active”, the Activity (Staphylococcus aureus [27]) was “Active” and the Activity (Staphylococcus aureus [28]) was “Active”. The Activity (Staphylococcus aureus [29]) was “Active”, the Activity (Staphylococcus aureus [30]) was “Active” and the Activity (Cell membrane [31]) was “Active”. The Activity (Cell membrane [32]) was “Active”, the Activity (Cell membrane [33]) was 100% and the Activity (Cell membrane [34]) was 100%. For the same molecule, the Activity (A549) was “Non-Toxic”, the Activity (Cell membrane [35]) was “Active” and the Activity (Cell membrane [36]) was “Active”. The Activity (Cell membrane [37]) was “Active”, the Activity (Cell membrane [38]) was “Active” and the Activity (Cell membrane [39]) was “Active”.
